For series [1] the following is noted: human, in vivo.
Method: The volunteer fasted for 12 hours prior to the study. […] Controlled amount of boiled pasta was eaten after the 4 h time point. An initial blood sample (400 μl) was collected using a lancet at a fingertip into heparin tubes followed by samples at 1, 2, 3, 4, 5, 6, 7 and 8 hour after ingestion. Plasma was separated and immediately analysed for fatty acid composition.
The AUC (calculates area under the curve for concentration vs. time data) is calculated using linear trapezoidal rule. […] In this experiment, the doses are the same. […] The relative bioavailability of compound 1 and compound 5 is calculated with the same formula:
Series [2] concerns A-549 human lung cancer cell line. The series is described as follows: in vitro cell viability assay (SRB) on A-549. It counts as cell-based. The procedure:
(§1) Five consecutive dilutions with a equal volume of DMSO was performed. […] Precipitation occur at high concentration of curcumin. […] Five consecutive dilutions with a equal volume of DMSO was performed. […] The cell viability assay is performed to measure the relative cell viability status of cancer cells upon exposure to test compounds in comparison to a positive control (etoposide) and a negative control (vehicule). Adherent cells growing in 96-well plates are exposed to test compounds for 3 days (72 hours). […] All conditions are tested in triplicate. […] After the incubation time, total protein content is quantified following staining with the anionic dye sulforhodamine B (SRB). The detection of luminescence, emitted by SRB, is completed by a microplate reader. This method of detection is based upon works published by Monks et al., in Journal of the National Cancer Institute vol. 82 no. […] The amount of luminescence is directly proportional to the number of living cells in culture. […] Cells were trypsinized using 0.25% trypsine (w/v)/0.53 mM EDTA solution (Hyclone), counted and plated at densities between 1000 and 3000 cells per well in flat bottom 96-well clear plates (Becton Dickinson) in 100 μl of appropriate culture medium supplemented with fetal bovine serum (Hyclone). […] Absorbance was read at 515 nm using a 96-well plate Multiskan Spectrum luminescence reader (Thermo Electron Corporation). […]

Series [3] relates to PC-3 human prostate cancer cell line. The series is described as follows: in vitro cell viability assay (SRB) on PC-3. It counts as cell-based. The procedure: as §1
In series [4] the test system is human monocyte THP-1 cells. As to the kind of experiment: LPS-induced TNF-α release by monocyte cells (ELISA). It counts as cell-based. Particulars: 100 ng/ml of LPS, 4 hours, composition 3 10 μg/ml, curcumin 5 μg/ml. The procedure:
Composition 3 (comprising compounds 1 and 5) at final concentration of 10 μg/ml, curcumin (5 μg/ml) and a 1:1 mixture of composition 3 ([…]) and curcumin (5 μg/ml) in DMSO (1%) was used for the in vitro assay. Composition 3 prepared according to the same procedure as previously described in Example 2)
The in vitro assay allows evaluation of the potential anti-inflammatory effects of compounds on the induced-release of pro-inflammatory mediator by monocyte cells. Typical human monocyte THP-1 cells, involved in inflammatory processes, are used in this assay. Measurement of pro-inflammatory mediator TNF-α is performed by ELISA (manufactured by R&D Systems) with artificial induction of pro-inflammatory agents by LPS (E. Coli 055:B5) during 4 hours. Known anti-inflammatory agent dexametazone was used as positive control.
(In general: In an ELISA, binding on a coated surface is turned into a signal by an enzyme label.)

For series [5], the system named is HCT-15 human colon cancer cell line. As to the kind of experiment: in vitro cell viability assay (SRB) on HCT-15. It counts as cell-based. The procedure: as §1

The values below come from patent publication US8222295B2, “Compositions comprising polyunsaturated fatty acid monoglycerides or derivatives thereof and uses thereof” (Centre de Recherche sur les Biotechnologies Marines, priority 2007, dated 2012).

≈ marks a conversion by molar mass, not a printed value.

As for `CC/C=C\C/C=C\C/C=C\C/C=C\C/C=C\CCCCCC(=O)OCC(O)CO` (stereo not drawn) [compound 1], the “relative bioavailability of compound 1 compared to compound 5” value in series [1] is listed as 2.20.
Turning to `COc1cc(/C=C/C(=O)CC(=O)/C=C/c2ccc(O)c(OC)c2)ccc1O` [curcumin], the IC50 in series [2] (A549, A-549, 72 hours, SRB, concentration of the tested substance or composition, read-out: 50% growth inhibition concentration) is around 100 µg/mL (≈ 271 µM); in series [3] (PC-3, 72 hours, SRB, concentration of the tested substance or composition, read-out: 50% growth inhibition concentration) it was around 75 µg/mL (≈ 204 µM); in series [5] (HCT-15, 72 hours, SRB, concentration of the tested substance or composition, read-out: 50% growth inhibition concentration) it was around 100 µg/mL (≈ 271 µM). Further, the TNF-α measured in series [4] came out at 100 µg/mL.
In turn, `C[C@@H]1C[C@H]2[C@@H]3CCC4=CC(=O)C=C[C@]4(C)[C@@]3(F)[C@@H](O)C[C@]2(C)[C@@]1(O)C(=O)CO` [dexametazone] gave a TNF-α measured in series [4] of 125 µg/mL.
Take `COc1cc([C@@H]2c3cc4c(cc3[C@@H](O[C@@H]3O[C@@H]5CO[C@@H](C)O[C@H]5[C@H](O)[C@H]3O)[C@H]3COC(=O)[C@H]23)OCO4)cc(OC)c1O` [etoposide]: the inhibition (as a rule, the change of the read-out against control, counted positive when it falls) at 294 µg/mL stood at 100% in series [2] (A549, A-549, positive control at 294 μg/ml, read-out: growth inhibition); 100% in series [3] (PC-3, positive control at 294 μg/ml, read-out: growth inhibition); 100% in series [5] (HCT-15, positive control at 294 μg/ml, read-out: growth inhibition).
